Measured values: ChEMBL document CHEMBL2203227, “Macrocycles are great cycles: applications, opportunities, and challenges of synthetic macrocycles in drug discovery” (J Med Chem, 2011)
Each block holds one compound with its values, some of them ahead of it. *1 amine or outer side, *2 acyl side, *3 side chain or, on linkers, in order; H or OH if unused. Where a SMILES comes first, the peptide text is derived from it. [ ]: non-standard residue; d: D form. LeuΨ(S-CHOHCH2)Ala = CC(C)C[C@H](N[*:1])[C@@H](O)C[C@@H](C)C(=O)[*:2]

Tests used:
[1] = target: Angiotensin-converting enzyme (Homo sapiens, UniProt P12821); assay: Inhibition of ACE
Neprilysin = Neprilysin (Homo sapiens, UniProt P08473); assay: Inhibition of neutral endopeptidase
[2] = Selectivity ratio of IC50 for tPa to IC50 for thrombin
[3] = Selectivity ratio of IC50 for trypsin to IC50 for thrombin
[4] = Inhibition of GGTase
[5] = Inhibition of FTase
[6] = target: Sonic hedgehog protein (Mus musculus) (UniProt Q62226); assay: Inhibition of sonic hedgehog pathway in mouse NIH-3T3 cells relative to control; type: cell-based; conditions: NIH3T3
Renin = target: T1, Renin (Homo sapiens, UniProt P00797); assay: Inhibition of renin
T1 sequence (P00797 whole entry): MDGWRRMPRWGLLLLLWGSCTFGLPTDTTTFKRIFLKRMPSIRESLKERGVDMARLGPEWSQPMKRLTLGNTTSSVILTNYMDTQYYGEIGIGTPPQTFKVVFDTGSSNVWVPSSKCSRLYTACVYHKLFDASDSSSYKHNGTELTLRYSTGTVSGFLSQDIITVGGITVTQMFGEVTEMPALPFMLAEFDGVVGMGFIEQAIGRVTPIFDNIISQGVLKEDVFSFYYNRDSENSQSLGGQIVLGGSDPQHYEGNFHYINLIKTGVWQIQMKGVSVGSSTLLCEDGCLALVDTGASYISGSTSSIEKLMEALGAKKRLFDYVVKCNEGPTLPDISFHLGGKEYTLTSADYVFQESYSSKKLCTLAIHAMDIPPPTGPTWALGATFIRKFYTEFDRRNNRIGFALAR

Prothrombin = Prothrombin (Homo sapiens, UniProt P00734); assay: Inhibition of thrombin
[7] = Inhibition of HIV protease; design: species or system Human immunodeficiency virus
Hepatitis C virus [8] = assay: microbe, parasite or virus in culture
Description: Antiviral activity against HCV by cell based replicon assay

[9] = Inhibition of HCV 1a NS3 protease; design: species or system Hepatitis C virus subtype 1a
Hepatitis C virus [10] = assay: Inhibition of HCV 1b NS3 protease; design: species or system Hepatitis C virus subtype 1b
Beta-secretase 1 = Beta-secretase 1 (Homo sapiens, UniProt P56817); assay: Inhibition of BACE1
[11] = Inhibition of HDAC by fluorimetry assay
[12] = Reversible inhibition of HCV NS3 protease; design: species or system Hepacivirus hominis
[13] = target: Growth hormone secretagogue receptor type 1 (Homo sapiens, UniProt Q92847); assay: Agonist activity at ghrelin receptor; type: functional
[14] = target: Ras-related protein Rap-1A (Homo sapiens, UniProt P62834); assay: Inhibition of Rap1a
[15] = target: DnaJ homolog subfamily A member 1 (Homo sapiens, UniProt P31689); assay: Inhibition of HDJ2
GTPase KRas = GTPase KRas (Homo sapiens, UniProt P01116); assay: Inhibition of Ki-Ras
[16] = Half life in dog; type: ADME, organism-based, Canis lupus familiaris; conditions: in vivo
[17] = Inhibition of HCV NS3 protease; design: species or system Hepacivirus hominis

Neprilysin, sequence (P08473 whole entry): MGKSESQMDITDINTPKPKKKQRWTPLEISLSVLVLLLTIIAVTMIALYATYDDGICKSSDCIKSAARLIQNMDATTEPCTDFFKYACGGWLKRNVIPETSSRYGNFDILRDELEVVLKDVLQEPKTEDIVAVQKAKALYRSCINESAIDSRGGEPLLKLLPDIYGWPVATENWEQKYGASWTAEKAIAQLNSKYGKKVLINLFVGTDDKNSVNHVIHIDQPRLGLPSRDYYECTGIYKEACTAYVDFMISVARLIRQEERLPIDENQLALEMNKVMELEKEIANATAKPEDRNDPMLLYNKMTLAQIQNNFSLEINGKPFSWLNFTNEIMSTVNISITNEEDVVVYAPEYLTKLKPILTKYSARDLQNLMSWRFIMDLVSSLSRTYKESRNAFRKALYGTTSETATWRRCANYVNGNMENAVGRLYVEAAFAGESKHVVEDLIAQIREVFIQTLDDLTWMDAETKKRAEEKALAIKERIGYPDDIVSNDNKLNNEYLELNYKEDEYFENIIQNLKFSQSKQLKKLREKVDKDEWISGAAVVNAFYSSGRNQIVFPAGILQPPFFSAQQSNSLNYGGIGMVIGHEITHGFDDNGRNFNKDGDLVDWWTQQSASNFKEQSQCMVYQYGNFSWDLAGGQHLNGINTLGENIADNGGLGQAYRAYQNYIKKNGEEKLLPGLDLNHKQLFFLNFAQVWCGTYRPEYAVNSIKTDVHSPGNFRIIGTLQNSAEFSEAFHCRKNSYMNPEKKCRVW
Angiotensin-converting enzyme, sequence (P12821 whole entry): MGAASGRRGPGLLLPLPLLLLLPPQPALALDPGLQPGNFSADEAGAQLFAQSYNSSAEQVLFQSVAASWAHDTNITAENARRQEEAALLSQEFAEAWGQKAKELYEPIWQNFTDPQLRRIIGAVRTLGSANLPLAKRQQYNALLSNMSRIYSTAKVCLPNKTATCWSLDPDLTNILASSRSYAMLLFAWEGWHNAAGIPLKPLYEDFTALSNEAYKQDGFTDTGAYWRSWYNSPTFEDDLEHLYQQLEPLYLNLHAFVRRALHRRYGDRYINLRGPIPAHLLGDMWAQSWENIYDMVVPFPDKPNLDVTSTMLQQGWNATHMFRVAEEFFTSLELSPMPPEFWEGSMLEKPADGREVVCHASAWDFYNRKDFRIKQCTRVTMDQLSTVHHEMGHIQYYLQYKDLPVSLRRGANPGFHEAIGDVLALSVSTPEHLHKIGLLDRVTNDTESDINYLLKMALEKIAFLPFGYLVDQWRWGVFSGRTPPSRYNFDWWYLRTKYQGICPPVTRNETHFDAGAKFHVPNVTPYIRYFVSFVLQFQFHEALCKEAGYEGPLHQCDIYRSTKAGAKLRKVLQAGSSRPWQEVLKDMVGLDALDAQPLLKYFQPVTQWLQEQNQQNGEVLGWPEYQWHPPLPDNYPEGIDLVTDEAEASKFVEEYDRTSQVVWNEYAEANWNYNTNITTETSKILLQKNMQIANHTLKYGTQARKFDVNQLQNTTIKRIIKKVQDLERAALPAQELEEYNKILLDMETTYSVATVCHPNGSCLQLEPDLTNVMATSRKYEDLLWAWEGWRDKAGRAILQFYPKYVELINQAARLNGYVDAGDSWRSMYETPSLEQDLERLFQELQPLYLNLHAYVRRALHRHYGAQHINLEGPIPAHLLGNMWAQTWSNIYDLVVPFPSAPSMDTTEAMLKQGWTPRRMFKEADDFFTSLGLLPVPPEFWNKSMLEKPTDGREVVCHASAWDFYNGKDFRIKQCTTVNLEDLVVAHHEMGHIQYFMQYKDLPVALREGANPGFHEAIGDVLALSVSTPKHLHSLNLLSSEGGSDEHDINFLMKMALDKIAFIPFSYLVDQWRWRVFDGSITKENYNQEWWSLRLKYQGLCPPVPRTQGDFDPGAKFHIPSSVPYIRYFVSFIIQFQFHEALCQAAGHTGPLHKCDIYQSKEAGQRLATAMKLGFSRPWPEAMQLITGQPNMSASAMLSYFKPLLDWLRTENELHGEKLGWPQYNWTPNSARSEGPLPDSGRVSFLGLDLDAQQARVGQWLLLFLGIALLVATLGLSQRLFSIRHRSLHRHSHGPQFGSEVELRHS
Growth hormone secretagogue receptor type 1, sequence (Q92847 whole entry): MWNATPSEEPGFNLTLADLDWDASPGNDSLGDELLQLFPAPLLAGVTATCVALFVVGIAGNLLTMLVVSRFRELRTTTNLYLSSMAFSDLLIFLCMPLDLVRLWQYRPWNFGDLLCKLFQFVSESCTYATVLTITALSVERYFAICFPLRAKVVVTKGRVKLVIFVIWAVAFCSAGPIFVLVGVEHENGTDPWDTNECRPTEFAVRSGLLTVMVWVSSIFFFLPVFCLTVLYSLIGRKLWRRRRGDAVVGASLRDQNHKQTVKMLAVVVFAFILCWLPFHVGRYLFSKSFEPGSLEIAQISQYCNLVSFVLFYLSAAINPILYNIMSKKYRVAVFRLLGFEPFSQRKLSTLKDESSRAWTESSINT
GTPase KRas, sequence (P01116 whole entry): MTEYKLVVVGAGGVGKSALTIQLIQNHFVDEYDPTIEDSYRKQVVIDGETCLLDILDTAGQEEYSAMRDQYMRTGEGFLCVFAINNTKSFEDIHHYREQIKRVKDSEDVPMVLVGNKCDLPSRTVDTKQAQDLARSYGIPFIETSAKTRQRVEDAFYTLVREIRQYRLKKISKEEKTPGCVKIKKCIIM
Ras-related protein Rap-1A, sequence (P62834 whole entry): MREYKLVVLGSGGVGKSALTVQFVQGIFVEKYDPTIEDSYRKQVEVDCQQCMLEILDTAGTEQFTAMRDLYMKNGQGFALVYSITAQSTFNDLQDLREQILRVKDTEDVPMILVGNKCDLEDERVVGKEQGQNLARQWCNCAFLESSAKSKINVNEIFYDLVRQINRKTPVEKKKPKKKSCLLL
DnaJ homolog subfamily A member 1, sequence (P31689 whole entry): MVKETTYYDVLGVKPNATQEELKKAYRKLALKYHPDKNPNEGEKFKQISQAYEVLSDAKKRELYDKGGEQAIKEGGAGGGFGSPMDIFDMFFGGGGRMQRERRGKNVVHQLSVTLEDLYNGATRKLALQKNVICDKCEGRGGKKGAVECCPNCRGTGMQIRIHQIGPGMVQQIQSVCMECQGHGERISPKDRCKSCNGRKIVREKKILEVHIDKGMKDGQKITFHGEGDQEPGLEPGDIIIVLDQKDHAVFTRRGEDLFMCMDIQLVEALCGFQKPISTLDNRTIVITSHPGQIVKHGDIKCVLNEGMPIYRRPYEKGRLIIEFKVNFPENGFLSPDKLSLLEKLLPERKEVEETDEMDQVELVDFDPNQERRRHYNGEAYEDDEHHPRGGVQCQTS
Beta-secretase 1, sequence (P56817 whole entry): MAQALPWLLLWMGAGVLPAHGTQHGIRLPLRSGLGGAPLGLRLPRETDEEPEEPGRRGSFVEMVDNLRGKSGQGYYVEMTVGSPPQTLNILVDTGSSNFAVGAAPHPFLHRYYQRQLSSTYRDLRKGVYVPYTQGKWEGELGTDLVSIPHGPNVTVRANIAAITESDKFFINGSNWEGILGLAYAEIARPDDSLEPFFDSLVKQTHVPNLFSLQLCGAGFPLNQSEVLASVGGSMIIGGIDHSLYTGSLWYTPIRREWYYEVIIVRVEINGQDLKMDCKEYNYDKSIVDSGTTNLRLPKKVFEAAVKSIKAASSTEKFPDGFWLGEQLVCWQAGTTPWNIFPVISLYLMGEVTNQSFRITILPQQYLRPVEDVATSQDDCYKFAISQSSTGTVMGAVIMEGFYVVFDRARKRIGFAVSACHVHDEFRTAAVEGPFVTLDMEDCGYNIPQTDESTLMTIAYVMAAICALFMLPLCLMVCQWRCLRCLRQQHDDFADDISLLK

SMILES: N#Cc1ccc2cc1Oc1ccc3c(c1)[C@@H](CC3)N1CC[C@@H](NCc3cncn3C2)C1=O
IC50 [4]: 18000 nM
IC50 [5]: < 1.6 nM

SMILES: C[C@H]1COC(=O)[C@@H](N)CC/C=C/C[C@@H](CC(=O)N(CCO)Cc2ccccc2)C(=O)N1
Emax [6]: 30%

SMILES: O=C1N[C@H](C(=O)N2C[C@H](O)C[C@H]2C(=O)O)CCCCCC[C@H]1CS
IC50 (Neprilysin): 0.8 nM

SMILES: COc1ccc2c(c1)OCC/C=C/CCCCN(C[C@@H](O)[C@H](Cc1ccccc1)NC(=O)O[C@H]1CO[C@H]3OCC[C@H]31)S2(=O)=O
IC50 [7]: 7 nM
Ki [7]: 0.06 nM

SMILES: COc1ccc2c(O[C@@H]3C[C@H]4C(=O)N[C@]5(C(=O)O)C[C@H]5/C=C\CCCCC[C@H](NC(=O)OC(C)(C)C)C(=O)N4C3)cc(-c3ccccc3)nc2c1
EC50 (Hepatitis C virus [8]): 7 nM
Ki [9]: 1.4 nM
Ki (Hepatitis C virus [10]): 1 nM

SMILES: CC(C)C[C@H](NC(=O)[C@H](CC(N)=O)NC(=O)[C@H](C)NC(=O)[C@@H](N)CCC(=O)O)[C@@H](O)C[C@@H](C)C(=O)N[C@@H](C)C(=O)N[C@@H](CCC(=O)O)C(=O)N[C@@H](Cc1ccccc1)C(=O)O (H-EAN[LeuΨ(S-CHOHCH2)Ala]AEF-OH)
IC50 (Beta-secretase 1): 1.6 nM

SMILES: O=C(CCCCCC1C2=NC(Cc3ccccc3)=C(O2)C(Cc2ccccc2)CCn2cc(nn2)CCCN1Cc1ccccc1)NO (stereo not given)
IC50 [11]: 4300 nM

SMILES: C[C@H]1NCc2cncn2Cc2ccc(C#N)c(c2)Oc2ccc3cccc(c3c2)NC1=O
IC50 [4]: 313 nM
IC50 [5]: 1.3 nM

SMILES: CCC[C@H](NC(=O)[C@@H]1[C@H]2CCC[C@H]2CN1C(=O)[C@@H](NC(=O)[C@@H](NC(=O)c1cnccn1)C1CCCCC1)C(C)(C)C)C(=O)C(=O)NC1CC1
IC50 (Hepatitis C virus [8]): 354 nM
Ki [12]: 7 nM

SMILES: N#Cc1ccc2cc1Oc1ccc3cccc(c3c1)N1CCN(CC1=O)Cc1cncn1C2
EC50 [14]: > 10000 nM
EC50 [15]: 2 nM
IC50 [4]: 301 nM
EC50 (GTPase KRas): > 10000 nM
half-life [16]: 1 h
IC50 [5]: 0.1 nM

SMILES: CC[C@H](C)[C@H](NC(=O)[C@@H](NC[C@@H]1COCCCN(C(=O)[C@H](Cc2ccccc2)NC(=O)OC(C)(C)C)[C@@H](C)C(=O)N1)C(C)C)C(=O)N[C@@H](Cc1cnc[nH]1)C(=O)OC
IC50 (Renin): > 100000 nM

SMILES: CC[C@H](C)[C@H](NC(=O)[C@@H]1CCCN1C[C@H](O)[C@@H]1Cc2ccc(cc2)OCCCC(=O)N[C@@H](CC(N)=O)C(=O)N1)C(=O)N[C@H](C(N)=O)C(C)C
Ki [7]: 12 nM

SMILES: CC[C@H](C)[C@H](NC(=O)[C@@H](NC[C@@H]1COCCCCCCCN(C(=O)[C@H](Cc2ccccc2)NC(=O)OC(C)(C)C)[C@@H](C)C(=O)N1)C(C)C)C(=O)N[C@@H](Cc1cnc[nH]1)C(=O)OC
IC50 (Renin): 2700 nM

SMILES: CC(C)CN(C[C@@H](O)[C@H](Cc1ccccc1)NC(=O)O[C@H]1CO[C@H]2OCC[C@H]21)S(=O)(=O)c1ccc(N)cc1
Ki [7]: 0.015 nM

SMILES: C=C[C@@H]1C[C@]1(NC(=O)[C@@H]1C[C@@H](Oc2cc(-c3ccccc3)nc3cc(OC)ccc23)CN1C(=O)[C@@H](NC(=O)[C@@H](NC(C)=O)C1CCCCC1)C(C)(C)C)C(=O)O
IC50 [17]: 1 nM

Further lines, results first:

IC50 [1]: 8000 nM
IC50 (Neprilysin): 3 nM
SMILES: O=C1N[C@H](C(=O)O)CCCCCc2ccccc2C[C@H]1CS

Ratio IC50 [2]: > 2000
Ratio IC50 [3]: > 2000
SMILES: O=C1COc2ccc(Cl)cc2CNC(=O)[C@@H]2CCCN2C(=O)[C@@H](C2CCCCC2)NC(=O)CCCN1

IC50 (Renin): 0.29 nM
SMILES: CC[C@H](C)[C@H](NC(=O)[C@@H](C[C@H](O)[C@H](CC1CCCCC1)NC(=O)[C@@H]1Cc2cn(cn2)CC(=O)N2CCC[C@H]2C(=O)N[C@@H](Cc2ccccc2)C(=O)N1)C(C)C)C(=O)NCc1ccccn1

Ki (Prothrombin): 0.09 nM
Ratio IC50 [2]: 7100
Ratio IC50 [3]: 23000
SMILES: O=C1Cn2c(Cl)cnc(c2=O)N[C@@H](Cc2ccccc2)CNCCCNCCOc2ccc(Cl)cc2CN1

Ki [7]: 3 nM
SMILES: CC[C@H](C)[C@@H]1NC(=O)[C@@H](NC[C@@H](O)[C@@H]2Cc3ccc(cc3)OCCCCC(=O)N[C@@H](C(C)C)C(=O)N2)Cc2ccc(cc2)OCCCNC1=O

EC50 [13]: 68 nM
SMILES: CCC[C@@H]1NCCOc2ccccc2/C=C/CNC(=O)[C@@H](Cc2ccccc2)NC(=O)CN(C)C1=O

Ki (Prothrombin): 0.4 nM
SMILES: O=C1COc2ccc(Cl)cc2CNC(=O)[C@@H]2CCCN2C(=O)[C@@H](C2CCCCC2)NC(=O)CCN1

IC50 (Renin): 56 nM
SMILES: CC(C)(C)C(=O)NCCOC(=O)N[C@@H](Cc1ccccc1)C(=O)N[C@H]1CCC(=O)NCCOC(=O)[C@H](O)[C@H](CC2CCCCC2)NC1=O

IC50 [1]: 4 nM
IC50 (Neprilysin): 8 nM
SMILES: O=C1N[C@H](C(=O)O)CCCCCc2cccc(c2)C[C@H]1CS
